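Compound exposure: 48 hours, 5 concentrations, 96-well plates. GI50: concentration for 50% inhibition of growth.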 The source made the active and inactive calls. No stated cut-off is given here; in the data, active = GI50 up to about 1.1 µM and inactive = higher.
Legend:
Experiment in all cases: NCI anticancer screen, dose series, 48 h
UACC-257 = system: UACC-257
NCI-H226 = system: NCI-H226
A549 = system: A549
KM-20L2 = system: KM-20L2
KM12 = system: KM12
SF-295 = system: SF-295
HOP-62 = system: HOP-62
DMS-273 = system: DMS-273
TK-10 = system: TK-10
NCI-H23 = system: NCI-H23
DLD-1 = system: DLD-1
HOP-18 = system: HOP-18
UO-31 = system: UO-31
LOX IMVI = system: LOX IMVI
OVCAR-3 = system: OVCAR-3
SN12C = system: SN12C
NCI-H460 = system: NCI-H460
XF498 = system: XF498
A498 = system: A498
SK-MEL-2 = system: SK-MEL-2
CCRF-CEM = system: CCRF-CEM
SF-268 = system: SF-268
Malme-3M = system: Malme-3M
SK-MEL-5 = system: SK-MEL-5
786-0 = system: 786-0
ACHN = system: ACHN
K562 = system: K562
SK-MEL-28 = system: SK-MEL-28
SNB-75 = system: SNB-75
SF-539 = system: SF-539
SNB-19 = system: SNB-19
RPMI-8226 = system: RPMI-8226
SW-620 = system: SW-620
OVCAR-8 = system: OVCAR-8
OVCAR-5 = system: OVCAR-5
HCC 2998 = system: HCC 2998
HT-29 = system: HT-29
EKVX = system: EKVX
HCT-15 = system: HCT-15
U-251 = system: U-251
IGROV-1 = system: IGROV-1
OVCAR-4 = system: OVCAR-4
CAKI-1 = system: CAKI-1
RXF 393 = system: RXF 393
MOLT-4 = system: MOLT-4
DMS-114 = system: DMS-114
HOP-92 = system: HOP-92
M14 = system: M14
LXFL 529 = system: LXFL 529
HCT-116 = system: HCT-116
SNB-78 = system: SNB-78
COLO 205 = system: COLO 205
HL-60 = system: HL-60
SR = system: SR
NCI-H522 = system: NCI-H522
M19-MEL = system: M19-MEL
SK-OV-3 = system: SK-OV-3
UACC-62 = system: UACC-62

For O=C(c1ccc(Cl)cc1)C1OC12C(=O)Nc1c(Cl)cc(Cl)cc12 (stereo not drawn), the GI50 (UACC-257) was 26.9 µM (inactive), the GI50 (NCI-H226) was 28.3 µM (inactive) and the GI50 (A549) was 49.9 µM (inactive). The GI50 (KM-20L2) was 67.5 µM (inactive), the GI50 (KM12) was 48.6 µM (inactive) and the GI50 (SF-295) was 46.3 µM (inactive). For the same molecule, the GI50 (HOP-62) was > 100 µM (inactive), the GI50 (DMS-273) was 65.5 µM (inactive) and the GI50 (TK-10) was 51.2 µM (inactive). The GI50 (NCI-H23) was 30.1 µM (inactive), the GI50 (DLD-1) was 87.3 µM (inactive) and the GI50 (HOP-18) was 36.2 µM (inactive). The GI50 (UO-31) was 63.7 µM (inactive), the GI50 (LOX IMVI) was 39.4 µM (inactive) and the GI50 (OVCAR-3) was 21.2 µM (inactive). The GI50 (SN12C) was 54 µM (inactive), the GI50 (NCI-H460) was 50.8 µM (inactive) and the GI50 (XF498) was 15.3 µM (inactive). For the same molecule, the GI50 (A498) was > 100 µM (inactive), the GI50 (SK-MEL-2) was 67.5 µM (inactive) and the GI50 (CCRF-CEM) was 22.4 µM (inactive). The GI50 (SF-268) was 51.9 µM (inactive), the GI50 (Malme-3M) was 71.9 µM (inactive) and the GI50 (SK-MEL-5) was 37.5 µM (inactive). The GI50 (786-0) was 49 µM (inactive), the GI50 (ACHN) was 92.9 µM (inactive) and the GI50 (K562) was 22.3 µM (inactive). The GI50 (SK-MEL-28) was 94 µM (inactive), the GI50 (SNB-75) was 25.9 µM (inactive) and the GI50 (SF-539) was 75 µM (inactive). The GI50 (SNB-19) was 54.3 µM (inactive), the GI50 (RPMI-8226) was 14.9 µM (inactive) and the GI50 (SW-620) was 40 µM (inactive). The GI50 (OVCAR-8) was 23 µM (inactive), the GI50 (OVCAR-5) was > 100 µM (inactive) and the GI50 (HCC 2998) was > 100 µM (inactive). For the same molecule, the GI50 (HT-29) was 41.2 µM (inactive), the GI50 (EKVX) was 19.8 µM (inactive) and the GI50 (HCT-15) was 42.1 µM. The GI50 (U-251) was 76.7 µM (inactive).
With CCCCCCCSCC1OC(n2cnc3c(N)ncnc32)C(O)C1O (stereo not drawn) the GI50 (UACC-257) was 18.3 µM (inactive), the GI50 (NCI-H226) was > 100 µM (inactive) and the GI50 (A549) was 31.8 µM (inactive). For the same molecule, the GI50 (IGROV-1) was 14.6 µM (inactive), the GI50 (KM-20L2) was > 100 µM (inactive) and the GI50 (OVCAR-4) was 21.8 µM (inactive). For the same molecule, the GI50 (KM12) was 8.22 µM (inactive), the GI50 (CAKI-1) was 5.08 µM (inactive) and the GI50 (RXF 393) was > 100 µM (inactive). For the same molecule, the GI50 (SF-295) was 18.7 µM (inactive), the GI50 (DMS-273) was 21.3 µM (inactive) and the GI50 (MOLT-4) was 19.1 µM (inactive). The GI50 (TK-10) was > 100 µM (inactive), the GI50 (NCI-H23) was > 100 µM (inactive) and the GI50 (DLD-1) was 7.64 µM (inactive). The GI50 (HOP-18) was 17.9 µM (inactive), the GI50 (DMS-114) was 18 µM (inactive) and the GI50 (LOX IMVI) was 49.9 µM (inactive). The GI50 (SN12C) was 21.8 µM (inactive), the GI50 (NCI-H460) was 16.5 µM (inactive) and the GI50 (XF498) was 63.4 µM (inactive). For the same molecule, the GI50 (A498) was 14.2 µM (inactive), the GI50 (SK-MEL-2) was 20.3 µM (inactive) and the GI50 (CCRF-CEM) was 39.4 µM (inactive). For the same molecule, the GI50 (HOP-92) was 6.43 µM (inactive), the GI50 (SF-268) was 34.2 µM (inactive) and the GI50 (Malme-3M) was 49.3 µM (inactive). The GI50 (SK-MEL-5) was 16.2 µM (inactive), the GI50 (ACHN) was 25.9 µM (inactive) and the GI50 (K562) was 22.8 µM (inactive). For the same molecule, the GI50 (SK-MEL-28) was > 100 µM (inactive), the GI50 (SNB-75) was 24 µM (inactive) and the GI50 (M14) was 22.5 µM (inactive). The GI50 (SF-539) was 32.7 µM (inactive), the GI50 (LXFL 529) was 12.3 µM (inactive) and the GI50 (HCT-116) was 3.59 µM (inactive). For the same molecule, the GI50 (SNB-78) was > 100 µM (inactive), the GI50 (SNB-19) was 30.5 µM (inactive) and the GI50 (RPMI-8226) was 12.6 µM (inactive). For the same molecule, the GI50 (SW-620) was 13.3 µM (inactive), the GI50 (OVCAR-8) was 14.4 µM (inactive) and the GI50 (COLO 205) was 14 µM (inactive). For the same molecule, the GI50 (HL-60) was 3.01 µM (inactive), the GI50 (OVCAR-5) was > 100 µM (inactive) and the GI50 (HCC 2998) was 20.9 µM (inactive). The GI50 (HT-29) was 1.42 µM (inactive), the GI50 (EKVX) was 20.5 µM (inactive) and the GI50 (HCT-15) was 4.5 µM. The GI50 (SR) was 10 µM (inactive) and the GI50 (U-251) was > 100 µM (inactive).
For COc1cc(Cc2cc(OC)c(OC)c(OC)c2)ccc1O, the GI50 (UACC-257) was 22.4 µM (inactive), the GI50 (NCI-H226) was 93.1 µM (inactive) and the GI50 (A549) was 8.59 µM (inactive). For the same molecule, the GI50 (IGROV-1) was > 100 µM (inactive), the GI50 (KM-20L2) was 36.5 µM (inactive) and the GI50 (OVCAR-4) was 82.2 µM (inactive). The GI50 (KM12) was 6.62 µM (inactive), the GI50 (CAKI-1) was 62.1 µM (inactive) and the GI50 (SF-295) was 4.57 µM (inactive). For the same molecule, the GI50 (HOP-62) was 26.8 µM (inactive), the GI50 (MOLT-4) was 4.27 µM (inactive) and the GI50 (TK-10) was 88.5 µM (inactive). For the same molecule, the GI50 (NCI-H23) was 11.2 µM (inactive), the GI50 (DLD-1) was 6.11 µM (inactive) and the GI50 (DMS-114) was 4.63 µM (inactive). For the same molecule, the GI50 (UO-31) was 52.6 µM (inactive), the GI50 (LOX IMVI) was 8.57 µM (inactive) and the GI50 (OVCAR-3) was 9.23 µM (inactive). For the same molecule, the GI50 (SN12C) was 21.8 µM (inactive), the GI50 (XF498) was 19.9 µM (inactive) and the GI50 (SK-MEL-2) was 3.11 µM (inactive). For the same molecule, the GI50 (CCRF-CEM) was 6.32 µM (inactive), the GI50 (HOP-92) was 19.3 µM (inactive) and the GI50 (SF-268) was 36.3 µM (inactive). The GI50 (Malme-3M) was 2.41 µM (inactive), the GI50 (SK-MEL-5) was 3.85 µM (inactive) and the GI50 (786-0) was 29.7 µM (inactive). The GI50 (ACHN) was 40.9 µM (inactive), the GI50 (K562) was 3.61 µM (inactive) and the GI50 (NCI-H522) was 9.31 µM (inactive). For the same molecule, the GI50 (SK-MEL-28) was 39.7 µM (inactive), the GI50 (M19-MEL) was 6.38 µM (inactive) and the GI50 (SNB-75) was 2.88 µM (inactive). The GI50 (M14) was 5 µM (inactive), the GI50 (SK-OV-3) was 39.4 µM (inactive) and the GI50 (SF-539) was 9.31 µM (inactive). The GI50 (LXFL 529) was 43.6 µM (inactive), the GI50 (HCT-116) was 5.19 µM (inactive) and the GI50 (SNB-78) was 40.6 µM (inactive). For the same molecule, the GI50 (SNB-19) was 23.9 µM (inactive), the GI50 (RPMI-8226) was 8.39 µM (inactive) and the GI50 (UACC-62) was 9.95 µM (inactive). The GI50 (SW-620) was 3.56 µM (inactive), the GI50 (OVCAR-8) was 25.5 µM (inactive) and the GI50 (COLO 205) was 77.8 µM (inactive). The GI50 (HL-60) was 2.27 µM (inactive), the GI50 (OVCAR-5) was > 100 µM (inactive) and the GI50 (HCC 2998) was 27 µM (inactive). For the same molecule, the GI50 (HT-29) was 34.8 µM (inactive), the GI50 (EKVX) was 27 µM (inactive) and the GI50 (HCT-15) was 3.28 µM. The GI50 (SR) was 6.08 µM (inactive) and the GI50 (U-251) was 19.9 µM (inactive).
